pIC50: −log10 of the molar value.
Legend:
Genome polyprotein = Genome polyprotein (Hepatitis C virus genotype 1a (isolate 1) (HCV), UniProt P26664); experiment: In vitro inhibition of Hepatitis C polymerase.
Huh-7 [1] = experiment: Tested for cytotoxic effect to Huh-7 cells containing HCV RNA subgenomic replicons; type: functional; conditions: Homo sapiens
Huh-7 [2] = experiment: Tested for inhibition of replication of HCV RNA subgenomic replicons in Huh-7 cells by replicon assay; type: functional, cell-based, Homo sapiens
Huh-7 [3] = experiment: Tested for inhibition of replication of HCV RNA subgenomic replicons in Huh-7 cells by real time PCR; type: functional, cell-based; conditions: Homo sapiens

Chain of Genome polyprotein (P26664 2421-3011 limits assumed): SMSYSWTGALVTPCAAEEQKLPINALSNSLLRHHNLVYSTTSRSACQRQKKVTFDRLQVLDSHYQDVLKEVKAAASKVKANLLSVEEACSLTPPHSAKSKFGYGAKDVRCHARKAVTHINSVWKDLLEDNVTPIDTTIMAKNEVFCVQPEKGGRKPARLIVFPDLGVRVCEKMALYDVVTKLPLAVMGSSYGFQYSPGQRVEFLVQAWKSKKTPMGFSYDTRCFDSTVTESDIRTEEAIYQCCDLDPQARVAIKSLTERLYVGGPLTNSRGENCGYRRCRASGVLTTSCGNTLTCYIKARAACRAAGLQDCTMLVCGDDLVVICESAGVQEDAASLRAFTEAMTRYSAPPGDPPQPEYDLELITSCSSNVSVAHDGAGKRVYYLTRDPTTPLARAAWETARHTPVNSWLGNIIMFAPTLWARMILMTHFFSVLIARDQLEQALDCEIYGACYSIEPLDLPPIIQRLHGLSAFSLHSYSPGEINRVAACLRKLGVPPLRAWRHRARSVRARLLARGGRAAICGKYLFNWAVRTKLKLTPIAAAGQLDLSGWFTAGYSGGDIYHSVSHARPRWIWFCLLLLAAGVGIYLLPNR

SMILES | pIC50 (Genome polyprotein) | pIC50 (Huh-7 [2]; Homo sapiens, Huh-7) | CC50 (Huh-7 [1]) | pIC50 (Huh-7 [2]; huh-7) | pIC50 (Huh-7 [3])
CN(C(=O)c1ccccc1)c1cc(-c2ccccc2)sc1C(=O)O | < 4.49 |  |  |  | 
Cc1ccc(C(=O)N(C)c2cc(-c3ccccc3)sc2C(=O)O)cc1C | < 4.30 |  |  |  | 
CN(C(=O)c1ccc(C(F)(F)F)cc1)c1cc(-c2ccccc2)sc1C(=O)O | 4.47 | < 4.30 |  |  | 
CC1CCC(C(=O)N(c2cc(-c3ccccc3)sc2C(=O)O)C(C)C)CC1 (stereo in doubt; 17) | 4.62 |  |  | < 4.30 | 
CCc1ccc(C(=O)N(C)c2cc(-c3ccccc3)sc2C(=O)O)cc1 | < 4.30 | < 4.00 |  |  | 
Cc1cccc(C(=O)N(C)c2cc(-c3ccccc3)sc2C(=O)O)c1 | < 4.30 | < 4.00 | > 200 µM |  | 
CC1CCC(C(=O)N(c2cc(-c3ccccc3)sc2C(=O)O)C(C)C)CC1 (stereo in doubt; 16) | 5.82 |  | 123 µM | 6.22 | 6.52
Cc1ccc(S(=O)(=O)Nc2cc(-c3ccccc3)sc2C(=O)O)c(C)c1 |  | 5.30 | 57 µM |  | 
CC(C)N(C(=O)C1CCCCC1)c1cc(-c2ccccc2)sc1C(=O)O | 5.05 | 4.82 | 69 µM |  | 
Cc1ccc(C(=O)Nc2cc(-c3ccccc3)sc2C(=O)O)cc1 |  | < 4.00 | 118 µM |  | 
Cc1ccccc1C(=O)N(C)c1cc(-c2ccccc2)sc1C(=O)O | 4.68 |  |  |  | 

The next lines start with results.

pIC50 (Genome polyprotein) | pIC50 (Huh-7 [2]; Homo sapiens, Huh-7) | SMILES | CC50 (Huh-7 [1]) | pIC50 (Huh-7 [2]; huh-7) | pIC50 (Huh-7 [3])
5.30 | 4.46 | Cc1ccc(S(=O)(=O)N(C)c2cc(-c3ccccc3)sc2C(=O)O)c(C)c1 | 115 µM |  | 
5.92 | 5.05 | CC(C)N(C(=O)c1ccc(Cl)cc1Cl)c1cc(-c2ccccc2)sc1C(=O)O | 62 µM |  | 
5.70 | 4.92 | CCN(C(=O)c1ccc(C)cc1)c1cc(-c2ccccc2)sc1C(=O)O | 100 µM |  | 
5.52 | 5.30 | Cc1ccc(C(=O)N(c2cc(-c3ccccc3)sc2C(=O)O)C(C)C)cc1 | > 200 µM |  | 
5.70 | 4.66 | Cc1ccc(C(=O)N(C)c2cc(-c3ccccc3)sc2C(=O)O)cc1 | > 200 µM |  | 
5.92 | 4.72 | CN(C(=O)c1ccc(Cl)cc1)c1cc(-c2ccccc2)sc1C(=O)O | 88 µM |  | 
5.85 | 4.80 | Cc1ccc(C(=O)N(C)c2cc(-c3ccccc3)sc2C(=O)O)c(C)c1 | 160 µM |  | 
